Assay results published in PubChem BioAssay AID2060912 (Molecular Pharmacology Branch, DTP, NCI, 2025).

Test system: HUVEC/MSC spheroids viability
Experiment: Human HUVEC/MSC cell line growth inhibition [KRAS2];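 for viability, T/C: percent of DMSO vehicle control luminescence so 100% = untreated viability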
Settings: for IC50: curve of first compound; for viability, T/C: stronger effect = lower value
Outline: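 HUVEC + hMSC stromal spheroids only, no malignant cells; 37 °C, 5% CO2. Drugs singly and in pairs, half-log series down from clinical Cmax (max 10 microM if Cmax undetermined).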

[1] = second compound 0.0316 µM, first compound 0.0316 µM
[2] = second compound 0.0316 µM, first compound 0.1 µM
[3] = second compound 0.0316 µM, first compound 0.316 µM
[4] = second compound 0.0316 µM, first compound 1 µM
[5] = second compound 0.0316 µM, first compound 3.16 µM
[6] = second compound 0.0316 µM, first compound 10 µM
[7] = second compound 0.1 µM, first compound 0.0316 µM
[8] = second compound 0.1 µM, first compound 0.1 µM
[9] = second compound 0.1 µM, first compound 0.316 µM
[10] = second compound 0.1 µM, first compound 1 µM
[11] = second compound 0.1 µM, first compound 3.16 µM
[12] = second compound 0.1 µM, first compound 10 µM
[13] = second compound 0.316 µM, first compound 0.0316 µM
[14] = second compound 0.316 µM, first compound 0.1 µM
[15] = second compound 0.316 µM, first compound 0.316 µM
[16] = second compound 0.316 µM, first compound 1 µM
[17] = second compound 0.316 µM, first compound 3.16 µM
[18] = second compound 0.316 µM, first compound 10 µM
[19] = second compound 1 µM, first compound 0.0316 µM
[20] = second compound 1 µM, first compound 0.1 µM
[21] = second compound 1 µM, first compound 0.316 µM
[22] = second compound 1 µM, first compound 1 µM
[23] = second compound 1 µM, first compound 3.16 µM
[24] = second compound 1 µM, first compound 10 µM
[25] = second compound 3.16 µM, first compound 0.0316 µM
[26] = second compound 3.16 µM, first compound 0.1 µM
[27] = second compound 3.16 µM, first compound 0.316 µM
[28] = second compound 3.16 µM, first compound 1 µM
[29] = second compound 3.16 µM, first compound 3.16 µM
[30] = second compound 3.16 µM, first compound 10 µM
[31] = second compound 10 µM, first compound 0.0316 µM
[32] = second compound 10 µM, first compound 0.1 µM
[33] = second compound 10 µM, first compound 0.316 µM
[34] = second compound 10 µM, first compound 1 µM
[35] = second compound 10 µM, first compound 3.16 µM
[36] = second compound 10 µM, first compound 10 µM

CC(=O)Nc1cccc(-n2c(=O)n(C3CC3)c(=O)c3c(Nc4ccc(I)cc4F)n(C)c(=O)c(C)c32)c1 + COc1cc2nc(C)nc(NC(C)c3cc(N)cc(C(F)(F)F)c3)c2cc1OC1CCOC1
IC50 (second compound 0.0316 µM): 15.3 nM
IC50 (second compound 0.1 µM): 15.2 nM
IC50 (second compound 0.316 µM): 13.1 nM
IC50 (second compound 1 µM): 13 nM
IC50 (second compound 3.16 µM): 14.4 nM
IC50 (second compound 10 µM): 10.4 nM
viability, T/C (second compound 0.0316 µM, first compound 94.9 pM): 126%
viability, T/C (second compound 0.0316 µM, first compound 0.0003 µM): 124%
viability, T/C (second compound 0.0316 µM, first compound 0.000949 µM): 105%
viability, T/C (second compound 0.0316 µM, first compound 0.003 µM): 92.6%
viability, T/C (second compound 0.0316 µM, first compound 0.00949 µM): 78.8%
viability, T/C (second compound 0.0316 µM, first compound 0.03 µM): 18.3%
viability, T/C (second compound 0.1 µM, first compound 94.9 pM): 105%
viability, T/C (second compound 0.1 µM, first compound 0.0003 µM): 129%
viability, T/C (second compound 0.1 µM, first compound 0.000949 µM): 129%
viability, T/C (second compound 0.1 µM, first compound 0.003 µM): 74.2%
viability, T/C (second compound 0.1 µM, first compound 0.00949 µM): 80.2%
viability, T/C (second compound 0.1 µM, first compound 0.03 µM): 18.6%
viability, T/C (second compound 0.316 µM, first compound 94.9 pM): 103%
viability, T/C (second compound 0.316 µM, first compound 0.0003 µM): 134%
viability, T/C (second compound 0.316 µM, first compound 0.000949 µM): 115%
viability, T/C (second compound 0.316 µM, first compound 0.003 µM): 82.6%
viability, T/C (second compound 0.316 µM, first compound 0.00949 µM): 68.8%
viability, T/C (second compound 0.316 µM, first compound 0.03 µM): 14.6%
viability, T/C (second compound 1 µM, first compound 94.9 pM): 108%
viability, T/C (second compound 1 µM, first compound 0.0003 µM): 125%
viability, T/C (second compound 1 µM, first compound 0.000949 µM): 91.4%
viability, T/C (second compound 1 µM, first compound 0.003 µM): 76.7%
viability, T/C (second compound 1 µM, first compound 0.00949 µM): 73.2%
viability, T/C (second compound 1 µM, first compound 0.03 µM): 15.2%
viability, T/C (second compound 3.16 µM, first compound 94.9 pM): 91%
viability, T/C (second compound 3.16 µM, first compound 0.0003 µM): 104%
viability, T/C (second compound 3.16 µM, first compound 0.000949 µM): 113%
viability, T/C (second compound 3.16 µM, first compound 0.003 µM): 68.8%
viability, T/C (second compound 3.16 µM, first compound 0.00949 µM): 76.4%
viability, T/C (second compound 3.16 µM, first compound 0.03 µM): 15.9%
viability, T/C (second compound 10 µM, first compound 94.9 pM): 83%
viability, T/C (second compound 10 µM, first compound 0.0003 µM): 99%
viability, T/C (second compound 10 µM, first compound 0.000949 µM): 97%
viability, T/C (second compound 10 µM, first compound 0.003 µM): 59.6%
viability, T/C (second compound 10 µM, first compound 0.00949 µM): 60.4%
viability, T/C (second compound 10 µM, first compound 0.03 µM): 5.88%

COC(=O)c1ccc2c(C(=Nc3ccc(N(C)C(=O)CN4CCN(C)CC4)cc3)c3ccccc3)c(O)[nH]c2c1 + COc1cc2nc(C)nc(NC(C)c3cc(N)cc(C(F)(F)F)c3)c2cc1OC1CCOC1
IC50 (second compound 0.0316 µM): 949 nM
IC50 (second compound 0.1 µM): 783 nM
IC50 (second compound 0.316 µM): 551 nM
IC50 (second compound 1 µM): 739 nM
IC50 (second compound 3.16 µM): 619 nM
IC50 (second compound 10 µM): 604 nM
viability, T/C [1]: 77.5%
viability, T/C [2]: 78.8%
viability, T/C [3]: 72.5%
viability, T/C [4]: 41%
viability, T/C [5]: 29.7%
viability, T/C [6]: 0.31%
viability, T/C [7]: 78.7%
viability, T/C [8]: 89.2%
viability, T/C [9]: 67.3%
viability, T/C [10]: 40.2%
viability, T/C [11]: 24.7%
viability, T/C [12]: 0.32%
viability, T/C [13]: 72.2%
viability, T/C [14]: 83.1%
viability, T/C [15]: 52.7%
viability, T/C [16]: 39.1%
viability, T/C [17]: 22%
viability, T/C [18]: 0.35%
viability, T/C [19]: 80.1%
viability, T/C [20]: 83.4%
viability, T/C [21]: 73%
viability, T/C [22]: 38.6%
viability, T/C [23]: 19.2%
viability, T/C [24]: 0.36%
viability, T/C [25]: 59.8%
viability, T/C [26]: 68.5%
viability, T/C [27]: 62.5%
viability, T/C [28]: 40.4%
viability, T/C [29]: 17.2%
viability, T/C [30]: 0.29%
viability, T/C [31]: 63.2%
viability, T/C [32]: 68%
viability, T/C [33]: 62.7%
viability, T/C [34]: 39.1%
viability, T/C [35]: 0.52%
viability, T/C [36]: 0.28%

O=C(c1cc(Cc2n[nH]c(=O)c3ccccc23)ccc1F)N1CCN(C(=O)C2CC2)CC1 + COc1cc2nc(C)nc(NC(C)c3cc(N)cc(C(F)(F)F)c3)c2cc1OC1CCOC1
IC50 (second compound 0.0316 µM): > 10000 nM
IC50 (second compound 0.1 µM): > 10000 nM
IC50 (second compound 0.316 µM): > 10000 nM
IC50 (second compound 1 µM): > 10000 nM
IC50 (second compound 3.16 µM): > 10000 nM
IC50 (second compound 10 µM): > 10000 nM
viability, T/C [1]: 104%
viability, T/C [2]: 108%
viability, T/C [3]: 102%
viability, T/C [4]: 94.2%
viability, T/C [5]: 89.7%
viability, T/C [6]: 99.3%
viability, T/C [7]: 108%
viability, T/C [8]: 101%
viability, T/C [9]: 90.5%
viability, T/C [10]: 89.5%
viability, T/C [11]: 90.3%
viability, T/C [12]: 83.9%
viability, T/C [13]: 93.8%
viability, T/C [14]: 92.9%
viability, T/C [15]: 101%
viability, T/C [16]: 93.8%
viability, T/C [17]: 101%
viability, T/C [18]: 115%
viability, T/C [19]: 86.5%
viability, T/C [20]: 115%
viability, T/C [21]: 93.8%
viability, T/C [22]: 88.8%
viability, T/C [23]: 89.5%
viability, T/C [24]: 93.2%
viability, T/C [25]: 75%
viability, T/C [26]: 101%
viability, T/C [27]: 93%
viability, T/C [28]: 82.2%
viability, T/C [29]: 84.8%
viability, T/C [30]: 101%
viability, T/C [31]: 72.3%
viability, T/C [32]: 76.5%
viability, T/C [33]: 79.4%
viability, T/C [34]: 68.2%
viability, T/C [35]: 77.2%
viability, T/C [36]: 63.2%
